These are literature values, as cited in patent publication US20130149346A1, “DABIGATRAN ETEXILATE-CONTAINING PHARMACEUTICAL COMPOSITION” (ratiopharm GmbH Graf-Arco-Strasse 3, priority 2010, published 2013).

The structures appear in SMILES notation.

The conditions of this data set: in the acidic environment.

Consider `CCCCCCOC(=O)NC(=N)c1ccc(NCc2nc3cc(C(=O)N(CCC(=O)OCC)c4ccccn4)ccc3n2C)cc1` [dabigatran etexilate, 3-[(2-{[4-(hexyloxycarbonylamino-imino-methyl)-phenylamino]-methyl}-1-methyl-1H-benzimidazole-5-carbonyl)-pyridine-2-yl-amino]-propionic acid ethyl ester], for which the pH-dependent solubility result was “greatly increased”.
